Source: paper PMC8123395, “Aggregation and Its Influence on the Bioactivities of a Novel Antimicrobial Peptide, Temporin-PF, and Its Analogues” (International Journal of Molecular Sciences, 2021)
≈ marks a conversion by molar mass, not a printed value. Read-outs that look alike come from different tables or passages of the source. Non-standard residues stand in square brackets, D forms with d. Residues, ends and D or L forms follow the SMILES beside them. No end group written: not given here.

Key:
[1] = Preliminary observation of solubility / hydrogel formation in PBS; assay type: physicochemical; conditions: peptide 10 mg/mL in PBS
Procedure: After the identification of TPF, the chemical synthesis of TPF was performed successfully. […] Therefore, we synthesized the des-Phe1 TPF to investigate the correlation between oligomerize effect and bioactivities. […] Therefore, we further substituted Phe with Trp and D-Trp to reveal the relationship between the oligomerization effect and the zipper motif and the influence on bioactivities (Table 1). The correct synthesis of peptides had been checked by MALDI-TOF mass spectrometry (Supplementary Figure S6) and synthetic yields were calculated (Supplementary Figure S7).

MRSA mature biofilm = assay type: cell-based
Procedure: (§1) MBIC and MBEC assays were performed as previously described with minor modifications. For the MBIC assay, a suspension of broth diluted bacteria culture (5 × 10^5 CFU/mL) was incubated with the peptide solutions at 37 °C for 24 h. For MBEC assay, 100 μL inoculum culture was seeded to a 96-well-flat-bottom plate and incubated at 37 °C for 48 h to obtain the mature biofilm. Afterwards, the plate was washed by sterile phosphate-buffered saline (PBS; Sigma-Aldrich, Gillingham, UK) twice and treated with a series peptide solution at 37 °C for 24 h. Then, all the plates were washed with PBS and stained by 100 μL 0.1% crystal violet solution (Sigma-Aldrich, Gillingham, UK), and further dissolved by 30% acetic acid (Sigma-Aldrich, Gillingham, UK). The absorbance of each well was recorded by Synergy HT plate reader (Biotech, Minneapolis, MN, USA) at 595 nm.

S. aureus biofilm = assay type: cell-based; conditions: 24 h
Procedure: as §1

S. aureus mature biofilm = assay type: cell-based
Procedure: as §1

MRSA biofilm = assay type: cell-based; conditions: 24 h
Procedure: as §1

horse erythrocytes = assay: Hemolysis test; assay type: cell-based; conditions: 2% horse erythrocyte suspension; peptide 128 to 1 µM; comparison among the four peptides
Procedure: Figure 9 Hemolytic activity of TPF and the analog against horse red blood cell. The percentage of hemolysis was calculated with the absorbance at 570 nm, compared with PBS-treated red blood cells. The error bar represents SD of five replicates.
The hemolytic activity of each peptide was measured by incubating a range of final peptide concentrations from 128 to 1 µM in a two-fold dilution in a 2% suspension of the horse erythrocytes, as described in a previous study. The absorbance of hemoglobin released from red blood cells was detected at 570 nm. The percentage of hemolysis was calculated by the comparison to the 1% Triton X-100 treated red blood cells.

[2] = test system: methicillin-resistant S. aureus (MRSA) (NCTC 12493); assay type: cell-based
Procedure: (§2) The minimum inhibitory concentration (MIC) and minimum bactericidal concentration (MBC) of peptides against the selected microorganisms were determined using the broth-dilution method, as described in the previous study. […] were used in the assay: Gram-positive bacteria Staphylococcus aureus (NCTC 10788), Enterococcus faecalis (NCTC 12697), and methicillin-resistant S. aureus (MRSA) (NCTC 12493); Gram-negative bacteria Escherichia coli (NCTC 10418), Pseudomonas aeruginosa (ATCC 27853), and Klebsiella pneumoniae (ATCC 43816). All the strains were cultured in Mueller Hinton Broth (MHB), pH 7.4 (Oxiod, Basingstoke, UK). Each peptide was tested at the final concentration from 128 to 1 µM in two-fold dilution. Norfloxacin was applied as the positive control.

[3] = test system: Staphylococcus aureus (NCTC 10788); assay type: cell-based
Procedure: as §2

[4] = test system: Escherichia coli (NCTC 10418); assay type: cell-based
Procedure: as §2

[5] = test system: Enterococcus faecalis (NCTC 12697); assay type: cell-based
Procedure: as §2

[6] = test system: Klebsiella pneumoniae (ATCC 43816); assay type: cell-based
Procedure: as §2

[7] = test system: Pseudomonas aeruginosa (ATCC 27853); assay type: cell-based
Procedure: as §2

[8] = Observation of aggregation: turbidity (absorbance at 600 nm) in media and salt solutions; assay type: physicochemical; conditions: absorbance 600 nm, three replicates
Procedure: Figure 3 The absorbance of TPF and the analogs prepared in (a) a series of culture media, including PBS, RPMI1640, RPMI1640 with 10% FBS, TSB, and MHB; 0.25, 0.5, and 1 M of (b) Na2HPO4, (c) CaCl2, and (d) MgCl2 solutions. Peptide solutions were prepared from 1 mg/mL, and the wavelength was set as 600 nm. The error bar represents the standard deviation (SD) with three replicates.
The method was followed the previous study with modifications. The purified peptides were prepared at 10 mg/mL in water and subsequently diluted with different solutions, including PBS, RPMI1640, RPMI1640 with 10% FBS, TSB, MHB, Na2HPO4 (0.25, 0.5, and 1 M), CaCl2 (0.25, 0.5, and 1 M), and MgCl2 (0.25, 0.5, and 1 M), in a 96-well plate to achieve the final concentration of 1 mg/mL. The turbidity of each well was detected using the absorbance at 600 nm by a plate reader. The peptides dissolved in water were applied as negative control.

[9] = RP-HPLC retention order of mixed peptides (overall hydrophobicity); assay type: physicochemical; conditions: peptides mixed in equal ratio and subjected to RP-HPLC; Supplementary Figure S4
Procedure: All peptides were chemically synthesized and purified by RP-HPLC. They were further mixed with an equal ratio and subjected to RP-HPLC. […] Subsequently, all peptides (1 mg/mL) were dissolved in a series of widely used culture media (Figure 2).
N-terminal Phe of temporin was believed to participate in the packaging of “head-tail” oligomerization. […] Furthermore, Trp/D-Trp substitution carried out on des-Phe1 TPF enhanced the peptide aggregation. […] It may be related to the decrease of the helical content; however, it could also be caused by the change of aggregation effects. Previous studies have shown that AMPs with strong antimicrobial activity are present as monomers in an aqueous solution and aggregate on the membrane to disrupt the bacterial cell membrane. […] It has been proposed that some aggregation effects of AMPs could limit the interaction of the peptide with its target, thereby reducing the antibacterial efficacy. In the previous study, the zipper-like motif is associated with the bioactivities as well as the assembly in the LPS micelles, which was considered to arise from hydrophobic interactions mainly. However, the overall hydrophobicity of Trp/D-Trp substituted analogs is less than that of des-Phe1 TPF, as estimated by RP-HPLC analysis. We hypothesize that the enhanced assembly seen for Trp/D-Trp substituted analogs might be related to the increased content of aromatic residues, because it could promote the strength of π stacking or cation-π type interaction. However, the true relation has not been fully clarified so far, and the capability of aromatic moieties to promote aggregation could also be affected by the hydrophobicity, position, and the neighboring side chains in their three-dimensional conformation.

[10] = Circular dichroism, helix content by BeStSel; assay type: physicochemical; conditions: CD, room temperature, BeStSel analysis; for Helix Content % DPPC: 50 μM peptide in 3 mM DPPC SUVs (erythrocyte membrane mimic); for Helix Content % DPPG/DPPE: 50 μM peptide in 3 mM DPPG/DPPE (88:12) SUVs (bacterial membrane mimic); for Helix Content % 50% TFE: 50 μM peptide in 50% TFE/10 mM NH4AC, three scans averaged
Procedure: Figure 8 CD spectra of TPF and the analogs (50 μM) prepared in 10 mM NH4AC, 50% TFE/10 mM NH4AC, 3 mM DPPG/DPPE (88:12) SUVs, and 3 mM DPPC SUVs. The spectra were averaged over three consecutive scans, and the solvent CD signal was subtracted.
The determination of the secondary structure of peptides was conducted using a JASCO J-815 CD Spectropolarimeter (JASCO Inc., Tokyo, Japan) as described in the previous study. Then, 50 μM of each peptide sample was prepared in the aqueous 10 mM ammonium acetate (NH4Ac; Sigma-Aldrich, Gillingham, UK) buffer, 50% (v/v) 2,2,2-trifluoroethanol (TFE; Sigma-Aldrich, Gillingham, UK), and 3 mM DPPG:DPPE (88:12) and DPPC small unilamellar liposomes/vesicles (SUVs) that were used to mimic the bacterial and mammalian erythrocyte cell membranes, respectively. The liposome was hydrated in deionized water and then sonicated for 15 min with an interval 30 s in an ice bath for generating SUVs. Samples were loaded in a 1-mm thickness quartz cuvette and analyzed at room temperature with the following parameters: scan range of 190–250 nm, scanning speed of […], 1 nm bandwidth, and 0.5 nm data pitch. The spectra were obtained by averaging data from three scans. The CD spectra were analyzed by BeStSel (http://bestsel.elte.hu/index.php, accessed on 16 May 2020) for the determination of secondary structure content.

[11] = MRSA NCTC 12493, broth dilution in MHB pH 7.4, peptide 128 to 1 µM
[12] = S. aureus NCTC 10788, broth dilution in MHB pH 7.4, peptide 128 to 1 µM two-fold dilution
[13] = E. coli NCTC 10418, broth dilution in MHB pH 7.4, peptide 128 to 1 µM
[14] = E. faecalis NCTC 12697, broth dilution in MHB pH 7.4, peptide 128 to 1 µM
[15] = K. pneumoniae ATCC 43816, broth dilution in MHB pH 7.4, peptide 128 to 1 µM
[16] = P. aeruginosa ATCC 27853, broth dilution in MHB pH 7.4, peptide 128 to 1 µM

Row | Compound | order of retention time (RP-HPLC, used as estimate of overall hydrophobicity) [9] | MBEC (MRSA mature biofilm; mature biofilm, 48 h) | MBIC (S. aureus biofilm; biofilm) | MBEC (S. aureus mature biofilm; mature biofilm, 48 h) | MBIC (MRSA biofilm; biofilm) | Helix Content % DPPC [10] [%] | Helix Content % DPPG/DPPE [10] [%] | Helix Content % 50% TFE [10] [%] | MBC ([2]; NCTC 12493, pH 7.4) [µM] | MIC ([2]; NCTC 12493, pH 7.4) [µM] | MBC ([3]; NCTC 10788, pH 7.4) [µM] | MIC ([3]; NCTC 10788, pH 7.4) [µM] | MBC ([4]; NCTC 10418, pH 7.4) [µM] | MIC ([4]; NCTC 10418, pH 7.4) [µM] | MBC ([5]; NCTC 12697, pH 7.4) [µM] | MIC ([5]; NCTC 12697, pH 7.4) [µM] | MBC ([6]; ATCC 43816, pH 7.4) [µM] | MIC ([6]; ATCC 43816, pH 7.4) [µM] | MBC ([7]; ATCC 27853, pH 7.4) [µM] | MIC ([7]; ATCC 27853, pH 7.4) [µM] | further results
1 | FLPLIAGLFGKIF-NH2 [TPF] | – | – | – | – | – | – | – | – | – | – | – | – | – | – | – | – | – | – | – | – | solubility in PBS [1]: significantly decreased; MBEC (MRSA mature biofilm; MRSA, 48 h mature biofilm treated with peptide 37 °C, 24 h, crystal violet, absorbance 595 nm): 16 µM; MBIC (S. aureus biofilm; S. aureus, 5 × 10^5 CFU/mL with peptide, 37 °C, crystal violet, absorbance 595 nm): 4 µM; MBEC (S. aureus mature biofilm; S. aureus, 48 h mature biofilm treated with peptide 37 °C, 24 h, crystal violet, absorbance 595 nm): 32 µM; MBIC (MRSA biofilm; MRSA, 5 × 10^5 CFU/mL with peptide, 37 °C, crystal violet, absorbance 595 nm): 4 µM; hemolytic activity (in words) (horse erythrocytes): strongest hemhemolytic activity; MBC [2, 11]: 4 µM; MIC [2, 11]: 4 µM; MBC [3, 12]: 32 µM; MIC [3, 12]: 4 µM; MBC [4, 13]: > 128 µM; MIC [4, 13]: > 128 µM; MBC [5, 14]: 16 µM; MIC [5, 14]: 16 µM; MBC [6, 15]: > 128 µM; MIC [6, 15]: > 128 µM; MBC [7, 16]: > 128 µM; MIC [7, 16]: > 128 µM
2 | LPLIAGLWGKIW-NH2 [W-des-Phe1 TPF] | TPF> des-Phe1 TPF> W-des-Phe1 TPF> dW-des-Phe1 TPF | 128/>128 µM | 64 µM | > 128 µM | 128/>128 µM | 10.1 | 26.9 | 27.7 | 128 | 128 | 32 | 32 | 128 | 128 | 128 | 128 | 128 | 128 | > 128 | > 128 | turbidity in culture media ([8]; peptide 1 mg/mL diluted from 10 mg/mL in water, PBS, RPMI1640, RPMI1640 with 10% FBS, TSB, MHB): increased outstandingly; salting-out effect in Na2HPO4 solutions ([8]; peptide 1 mg/mL, 0.25, 0.5 and 1 M Na2HPO4): strongest salting-out effect
3 | CC[C@H](C)[C@H](NC(=O)[C@H](CC(C)C)NC(=O)[C@@H]1CCCN1C(=O)[C@@H](N)CC(C)C)C(=O)N[C@@H](C)C(=O)NCC(=O)N[C@@H](CC(C)C)C(=O)N[C@H](Cc1c[nH]c2ccccc12)C(=O)NCC(=O)N[C@@H](CCCCN)C(=O)N[C@H](C(=O)N[C@H](Cc1c[nH]c2ccccc12)C(N)=O)[C@@H](C)CC [dW-des-Phe1 TPF] (H-LPLIAGL[dW]GKI[dW]-NH2; N-terminus assumed) | TPF> des-Phe1 TPF> W-des-Phe1 TPF> dW-des-Phe1 TPF | >128/>128 µM | >128/>128 µM | >128/>128 µM | >128/>128 µM | 8.3 | 0.5 | 3.0 | > 128 | > 128 | 64 (≈ 87.4 µg/mL) | 64 (≈ 87.4 µg/mL) | > 128 | > 128 | > 128 | > 128 | > 128 | > 128 | > 128 | > 128 | –
